According to ChEMBL document CHEMBL1129270, “Aza-peptide analogs as potent human immunodeficiency virus type-1 protease inhibitors with oral bioavailability” (J Med Chem, 1996):

Key:
Mus musculus (mouse) = experiment: Plasma Concentration after 60 min of oral administration to mice
[1] = molecular target: Human immunodeficiency virus type 1 protease (Human immunodeficiency virus 1) (UniProt Q72874); experiment: In vivo antiviral activity (IC50) against HIV-1 protease.; assay type: organism-based
[2] = Plasma Concentration after 30 min of oral administration to mice; assay type: ADME, organism-based; settings: mouse
[3] = Plasma Concentration after 120 min of oral administration to mice; assay type: ADME, organism-based; settings: mouse
[4] = molecular target: Human immunodeficiency virus type 1 protease (Human immunodeficiency virus 1) (UniProt Q72874); experiment: In vivo for antiviral activity (ED90) against HIV-1 protease.; assay type: organism-based
[5] = Plasma Concentration after 90 min of oral administration to mice; assay type: ADME, organism-based; settings: mouse
[6] = Compound was tested in vivo for antiviral activity (C120/ED50) against HIV Protease.; assay type: functional

SMILES: COCCOC(=O)NC(C(=O)N[C@@H](Cc1ccccc1)[C@H](O)CN(CC1CCCCC1)NC(=O)C(NC(=O)OCCOC)C(C)C)C(C)C (some centres undefined)
- concentration at 1 h (Mus musculus (mouse)): 1100 nM
- ED50 [1]: 79 nM
- concentration at 0.5 h [2]: 2700 nM
- concentration at 2 h [3]: < 500 nM
- ED90 [4]: 300 nM
- concentration at 1.5 h [5]: < 500 nM

SMILES: CC(C)(C)NC(=O)[C@@H]1C[C@@H]2CCCC[C@@H]2CN1C[C@@H](O)[C@H](Cc1ccccc1)NC(=O)[C@H](CC(N)=O)NC(=O)c1ccc2ccccc2n1
- ED50 [1]: 4.5 nM
- ED90 [4]: 10 nM

SMILES: COC(=O)N[C@H](C(=O)N[C@@H](Cc1ccccc1)C(O)CN(Cc1cccs1)NC(=O)[C@@H](NC(=O)OC)C(C)C)C(C)C (some centres undefined)
- ED50 [1]: 17 nM
- ED90 [4]: 100 nM

SMILES: COCCOC(=O)NC(C(=O)NC(Cc1ccccc1)C(O)CN(CC1CCCCC1)NC(=O)C(NC(=O)OC)C(C)C)C(C)C (centres undefined)
- concentration at 1 h (Mus musculus (mouse)): < 500 nM
- ED50 [1]: 14 nM
- concentration at 0.5 h [2]: < 500 nM
- concentration at 2 h [3]: < 500 nM
- ED90 [4]: 100 nM
- concentration at 1.5 h [5]: < 500 nM

SMILES: CCOC(=O)NC(C(=O)N[C@@H](Cc1ccccc1)[C@H](O)CN(CC1CCCCC1)NC(=O)C(NC(=O)OCC)C(C)C)C(C)C (some centres undefined)
- concentration at 1 h (Mus musculus (mouse)): 6700 nM
- ED50 [1]: 55 nM
- concentration at 0.5 h [2]: 6700 nM
- C120/ED50 [6]: 158
- concentration at 2 h [3]: 8700 nM
- ED90 [4]: 1000 nM
- concentration at 1.5 h [5]: 7800 nM

SMILES: COC(=O)N[C@H](C(=O)N[C@@H](Cc1ccccc1)C(O)CN(Cc1ccc(F)cc1)NC(=O)[C@@H](NC(=O)OC)C(C)C)C(C)C (some centres undefined)
- ED50 [1]: 49 nM
- ED90 [4]: 1000 nM

SMILES: CCOC(=O)NC(C(=O)NN(CC1CCCCC1)C[C@@H](O)[C@H](Cc1ccccc1)NC(=O)C(NC(=O)OC)C(C)C)C(C)C (some centres undefined)
- concentration at 1 h (Mus musculus (mouse)): 2200 nM
- ED50 [1]: 29 nM
- concentration at 0.5 h [2]: 3800 nM
- C120/ED50 [6]: 207
- concentration at 2 h [3]: 6000 nM
- ED90 [4]: 100 nM
- concentration at 1.5 h [5]: 5800 nM

SMILES: COc1ccc(CN(C[C@H](O)[C@H](Cc2ccccc2)NC(=O)[C@H](CC(N)=O)NC(=O)c2ccc3ccccc3n2)NC(=O)C(NC(=O)OCc2ccccc2)C(C)C)cc1 (some centres undefined)
- ED50 [1]: 15 nM
- ED90 [4]: 30 nM

SMILES: COC(=O)NC(C(=O)NN(CC(C)C)C[C@H](O)[C@H](Cc1ccccc1)NC(=O)[C@H](CC(N)=O)NC(=O)c1ccc2ccccc2n1)C(C)C (some centres undefined)
- ED50 [1]: 63 nM
- ED90 [4]: 300 nM

SMILES: COC(=O)N[C@H](C(=O)N[C@@H](Cc1ccccc1)C(O)CN(Cc1ccc(OC)c(OC)c1OC)NC(=O)[C@@H](NC(=O)OC)C(C)C)C(C)C (some centres undefined)
- ED50 [1]: 28 nM
- ED90 [4]: 100 nM

SMILES: C=CCOC(=O)NC(C(=O)N[C@@H](Cc1ccccc1)[C@H](O)CN(CC1CCCCC1)NC(=O)C(NC(=O)OCC=C)C(C)C)C(C)C (some centres undefined)
- concentration at 1 h (Mus musculus (mouse)): 1200 nM
- ED50 [1]: 83 nM
- concentration at 0.5 h [2]: 800 nM
- C120/ED50 [6]: 12
- concentration at 2 h [3]: 1000 nM
- ED90 [4]: 1000 nM
- concentration at 1.5 h [5]: 900 nM

SMILES: COC(=O)N[C@H](C(=O)N[C@@H](Cc1ccccc1)C(O)CN(CC1CCCCC1)NC(=O)[C@@H](NC(=O)OC)C(C)C)C(C)C (some centres undefined)
- ED50 [1]: 18 nM
- ED90 [4]: 100 nM

SMILES: COC(=O)N[C@H](C(=O)N[C@@H](Cc1ccccc1)C(O)CN(Cc1ccc(O)cc1)NC(=O)[C@@H](NC(=O)OC)C(C)C)C(C)C (some centres undefined)
- ED50 [1]: 150 nM
- ED90 [4]: 1000 nM

SMILES: COC(=O)N[C@H](C(=O)N[C@@H](Cc1ccccc1)C(O)CN(Cc1ccc(C(F)(F)F)cc1)NC(=O)[C@@H](NC(=O)OC)C(C)C)C(C)C (some centres undefined)
- ED50 [1]: 17 nM
- ED90 [4]: 100 nM

SMILES: COC(=O)N[C@H](C(=O)N[C@@H](Cc1ccccc1)C(O)CN(CCC(C)C)NC(=O)[C@@H](NC(=O)OC)C(C)C)C(C)C (some centres undefined)
- concentration at 1 h (Mus musculus (mouse)): 600 nM
- ED50 [1]: 2.7 nM
- concentration at 0.5 h [2]: < 200 nM
- C120/ED50 [6]: 111
- concentration at 2 h [3]: 300 nM
- ED90 [4]: 30 nM
- concentration at 1.5 h [5]: 400 nM

SMILES: CCOC(=O)NC(C(=O)N[C@@H](Cc1ccccc1)[C@H](O)CN(CC1CCCCC1)NC(=O)C(NC(=O)OC)C(C)C)C(C)C (some centres undefined)
- concentration at 1 h (Mus musculus (mouse)): 400 nM
- ED50 [1]: 72 nM
- concentration at 0.5 h [2]: 3200 nM
- C120/ED50 [6]: 19
- concentration at 2 h [3]: 1400 nM
- ED90 [4]: 1000 nM
- concentration at 1.5 h [5]: 1200 nM

SMILES: CC(C)C(NC(=O)OCc1ccccc1)C(=O)NN(CC1CCCCC1)C[C@H](O)[C@H](Cc1ccccc1)NC(=O)[C@H](CC(N)=O)NC(=O)c1ccc2ccccc2n1 (some centres undefined)
- concentration at 1 h (Mus musculus (mouse)): 200 nM
- ED50 [1]: 9.8 nM
- concentration at 0.5 h [2]: 300 nM
- C120/ED50 [6]: 73
- concentration at 2 h [3]: 1100 nM
- ED90 [4]: 30 nM
- concentration at 1.5 h [5]: 800 nM

SMILES: CCOC(=O)NC(C(=O)NN(CC1CCCCC1)C[C@H](O)[C@H](Cc1ccccc1)NC(=O)[C@H](CC(N)=O)NC(=O)c1ccc2ccccc2n1)C(C)C (some centres undefined)
- ED50 [1]: 9.4 nM
- ED90 [4]: 30 nM

SMILES: COCCOC(=O)NC(C(=O)NN(CC1CCCCC1)C[C@@H](O)[C@H](Cc1ccccc1)NC(=O)C(NC(=O)OC)C(C)C)C(C)C (some centres undefined)
- concentration at 1 h (Mus musculus (mouse)): 2800 nM
- ED50 [1]: 28 nM
- concentration at 0.5 h [2]: 1000 nM
- C120/ED50 [6]: 111
- concentration at 2 h [3]: 3100 nM
- ED90 [4]: 100 nM
- concentration at 1.5 h [5]: 3000 nM

SMILES: COC(=O)NC(C(=O)NN(Cc1ccc(OC)cc1)C[C@H](O)[C@H](Cc1ccccc1)NC(=O)[C@H](CC(N)=O)NC(=O)c1ccc2ccccc2n1)C(C)C (some centres undefined)
- ED50 [1]: 118 nM
- ED90 [4]: 1000 nM

SMILES: CCOC(=O)NC(C(=O)NN(CC1CCCCC1)C[C@@H](O)[C@H](Cc1ccccc1)NC(=O)C(NC(=O)OCCOC)C(C)C)C(C)C (some centres undefined)
- concentration at 1 h (Mus musculus (mouse)): < 200 nM
- ED50 [1]: 24 nM
- concentration at 0.5 h [2]: < 200 nM
- concentration at 2 h [3]: < 200 nM
- ED90 [4]: 100 nM
- concentration at 1.5 h [5]: < 200 nM

SMILES: COC(=O)N[C@H](C(=O)N[C@@H](Cc1ccccc1)C(O)CN(Cc1ccc(C)cc1)NC(=O)[C@@H](NC(=O)OC)C(C)C)C(C)C (some centres undefined)
- concentration at 1 h (Mus musculus (mouse)): < 200 nM
- ED50 [1]: 6.2 nM
- concentration at 0.5 h [2]: < 200 nM
- concentration at 2 h [3]: < 200 nM
- ED90 [4]: 30 nM
- concentration at 1.5 h [5]: < 200 nM

SMILES: COC(=O)N[C@H](C(=O)N[C@@H](Cc1ccccc1)C(O)CN(Cc1ccc(OC)cc1)NC(=O)[C@@H](NC(=O)OC)C(C)C)C(C)C (some centres undefined)
- ED50 [1]: 9 nM
- concentration at 0.5 h [2]: < 200 nM
- concentration at 2 h [3]: < 200 nM
- ED90 [4]: 30 nM
- concentration at 1.5 h [5]: < 200 nM

SMILES: CC(C)CN(C[C@H](O)[C@H](Cc1ccccc1)NC(=O)[C@H](CC(N)=O)NC(=O)c1ccc2ccccc2n1)NC(=O)C(NC(=O)OCc1ccccc1)C(C)C (some centres undefined)
- ED50 [1]: 12 nM
- ED90 [4]: 30 nM

SMILES: COC(=O)N[C@H](C(=O)N[C@@H](Cc1ccccc1)C(O)CN(CC(C)C)NC(=O)[C@@H](NC(=O)OC)C(C)C)C(C)C (some centres undefined)
- ED50 [1]: 23 nM
- ED90 [4]: 1000 nM

SMILES: COC(=O)N[C@H](C(=O)N[C@@H](Cc1ccccc1)[C@H](O)CN(CC1CCCCC1)NC(=O)[C@@H](NC(C)=O)C(C)C)C(C)C
- ED50 [1]: 300 nM
- ED90 [4]: 1000 nM

SMILES: COC(=O)N[C@H](C(=O)N[C@@H](Cc1ccccc1)C(O)CN(Cc1ccc(C#N)cc1)NC(=O)[C@@H](NC(=O)OC)C(C)C)C(C)C (some centres undefined)
- ED50 [1]: 68 nM
- ED90 [4]: 1000 nM

SMILES: COCCOCCOC(=O)NC(C(=O)N[C@@H](Cc1ccccc1)[C@H](O)CN(CC1CCCCC1)NC(=O)C(NC(=O)OCCOCCOC)C(C)C)C(C)C (some centres undefined)
- ED50 [1]: 41 nM
- ED90 [4]: 10000 nM

SMILES: CCOC(=O)NC(C(=O)N[C@@H](Cc1ccccc1)[C@H](O)CN(CC1CCCCC1)NC(=O)C(NC(=O)OCCOC)C(C)C)C(C)C (some centres undefined)
- concentration at 1 h (Mus musculus (mouse)): 2200 nM
- ED50 [1]: 15 nM
- concentration at 0.5 h [2]: 1000 nM
- C120/ED50 [6]: 100
- concentration at 2 h [3]: 1500 nM
- ED90 [4]: 100 nM
- concentration at 1.5 h [5]: 1000 nM

SMILES: COC(=O)NC(C(=O)NN(CC1CCCCC1)C[C@H](O)[C@H](Cc1ccccc1)NC(=O)[C@H](CC(N)=O)NC(=O)c1ccc2ccccc2n1)C(C)C (some centres undefined)
- ED50 [1]: 18 nM
- ED90 [4]: 100 nM
